Experimental data published in ChEMBL document CHEMBL1126157, “QSAR analyses of the substituted indanone and benzylpiperidine rings of a series of indanone-benzylpiperidine inhibitors of acetylcholinesterase” (J Med Chem, 1992).

Experiments:
Acetylcholinesterase [1] = biological target: T1, Acetylcholinesterase (Homo sapiens, UniProt P22303)
Description: Inhibition of acetylcholinesterase.

Acetylcholinesterase [2] = biological target: T1, Acetylcholinesterase; remark: listed apart in the source
Acetylcholinesterase [3] = biological target: T1, Acetylcholinesterase; remark: listed apart in the source
Description: Inhibition of acetylcholinesterase.

Acetylcholinesterase [4] = biological target: T1, Acetylcholinesterase; remark: listed apart in the source

T1 sequence (P22303 whole entry): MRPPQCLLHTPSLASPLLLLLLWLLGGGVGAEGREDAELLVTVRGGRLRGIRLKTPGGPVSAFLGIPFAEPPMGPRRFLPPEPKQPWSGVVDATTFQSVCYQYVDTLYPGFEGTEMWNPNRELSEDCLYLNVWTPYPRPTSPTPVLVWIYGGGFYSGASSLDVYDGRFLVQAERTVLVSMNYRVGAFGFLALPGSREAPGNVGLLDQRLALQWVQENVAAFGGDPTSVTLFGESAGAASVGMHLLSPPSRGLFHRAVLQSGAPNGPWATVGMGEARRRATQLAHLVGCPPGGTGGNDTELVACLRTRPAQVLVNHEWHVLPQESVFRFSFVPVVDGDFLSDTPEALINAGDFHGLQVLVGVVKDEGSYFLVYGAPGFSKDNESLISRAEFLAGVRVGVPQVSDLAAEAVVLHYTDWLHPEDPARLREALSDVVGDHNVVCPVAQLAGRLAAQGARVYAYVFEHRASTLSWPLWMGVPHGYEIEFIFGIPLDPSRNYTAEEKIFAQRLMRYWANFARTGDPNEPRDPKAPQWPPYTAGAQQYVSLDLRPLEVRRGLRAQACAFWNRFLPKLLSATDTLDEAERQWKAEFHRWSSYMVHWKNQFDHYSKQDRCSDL

SMILES	IC50 (Acetylcholinesterase [1]) [nM]	IC50 (Acetylcholinesterase [2]) [nM]	IC50 (Acetylcholinesterase [3]) [nM]	IC50 (Acetylcholinesterase [4]) [µM]
CC1Cc2ccc(F)cc2C1=O (stereo not given)	200	380		
COc1cc2c(cc1OC)C(=O)C(C)C2 (stereo not given)	5.25	380		
Cc1ccc([N+](=O)[O-])cc1 [4-NITROTOLUENE]			100	4.9
COc1cc(C)cc(OC)c1OC			4900	4.9
Cc1ccc2c(c1)C(=O)C(C)C2 (stereo not given)	69.2	380		
COc1cc2c(cc1O)C(=O)C(C)C2 (stereo not given)	1.32	380		
COc1ccc(OC)c2c1CC(C)C2=O (stereo not given)	36.3	380		
COc1cc2c(cc1O)CC(C)C2=O (stereo not given)	380	380		
COc1ccc2c(c1OC)CC(C)C2=O (stereo not given)	20	380		
CC1Cc2cc3c(cc2C1=O)OCO3 (stereo not given)	22.9	380		
CCOc1cc2c(cc1OCC)C(=O)C(C)C2 (stereo not given)	6.31	380		
COc1ccc2c(c1)C(=O)C(C)C2 (stereo not given)	81.3	380		
Cc1cccc(C)c1 [M-XYLENE]			2	4.9
COc1cccc2c1CC(C)C2=O (stereo not given)	12	380		
CC1Cc2ccccc2C1=O (stereo not given)	148	380		
Cc1cccc(F)c1			1	4.9
COc1ccc2c(c1OC)C(=O)C(C)C2 (stereo not given)	87.1	380		
COc1cc2c(c(OC)c1)C(=O)C(C)C2 (stereo not given)	25.1	380		
Cc1cccc2c1CC(C)C2=O (stereo not given)	7.08	380		
Cc1ccc(F)cc1			9.55	4.9
COc1cccc(C)c1			219	4.9
Cc1ccccc1C [O-XYLENE]			10	4.9
COc1ccc(C)cc1OC			3980	4.9
Cc1ccccc1F			9.55	4.9
Cc1ccc(O)cc1 [p-CRESOL]			1.82	4.9
COc1cc2c(cc1OC(C)C)CC(C)C2=O (stereo not given)	8.91	380		
Cc1cccc(O)c1 [METACRESOL]			45.7	4.9
COc1cc2c(c(OC)c1OC)C(=O)C(C)C2 (stereo not given)	13.2	380		
Cc1ccccc1 [TOLUENE]			5.25	4.9
Cc1ccc(C)cc1 [P-XYLENE]			39.8	4.9
